Measured values reported in patent publication US7662364B2, “Drug for hyperphospheremia and its preparative method” (priority 2006, dated 2010).
Where two headings read alike, the source gives them in different places.

Conditions: for Removing phosphate %: 0.5 g in 100 ml, 37° C.
Method: Lanthanum carbonate 0.5 g was added to 0.85% NaCl solution 100 ml (pH 6.8) and 0.85% NaCl solution 100 ml (pH7.8), respectively. Then, sufficient quantities of Na2HPO4 were added to the two solutions, stirred at 37° C. Filtered solutions were obtained at 10 min, 30 min, 40 min and 60 min, respectively. Phosphate content was determined and the percentage of removing phosphate was computed.

With `O=C([O-])[O-].O=C([O-])[O-].O=C([O-])[O-].[La+3].[La+3]` [Lanthanum carbonate] the Removing phosphate % (0.85% NaCl pH 6.8, 10 min) was 6.7%, the Removing phosphate % (0.85% NaCl pH 6.8, 30 min) was 13.7% and the Removing phosphate % (0.85% NaCl pH 6.8, 40 min) was 16.9%. For the same compound, the Removing phosphate % (0.85% NaCl pH 6.8, 60 min) was 20.8%, the Removing phosphate % (0.85% NaCl pH 7.8, 10 min) was 1.4% and the Removing phosphate % (0.85% NaCl pH 7.8, 30 min) was <2.0%. The Removing phosphate % (0.85% NaCl pH 7.8, 40 min) was <2.0%, the Removing phosphate % (0.85% NaCl pH 7.8, 60 min) was <2.0% and the “phosphate removal, result in words” value (solution whose PH was similar to that of human large intestine (pH 7.8)) was “unable to remove phosphate”. For the same compound, the “phosphate removal, result in words” value (solution whose PH was similar to that of human small intestine (pH 6.8)) was “removed less phosphate”.
